Tests used:
Type in all cases: biochemical
[1] = biological target: T1, cathepsin L (Homo sapiens, UniProt P07711); assay: Cathepsin L enzyme inhibition in vitro (kinetic fluorescence assay); details: Ki(cathepsin L)/Ki(calpain) ratio
T1 construct: cathepsin L—isolated from human liver; purchased Calbiochem 219402; host or cells: human liver (tissue isolate)
How it was run: (§1)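 Kinetic fluorescence (ex 390/em 460 nm), RT. Calpain-I: 20 nM erythrocyte-derived, 100 μM Suc-Leu-Tyr-AMC, imidazole/CaCl2, pH 7.3. Cathepsins, pH 6.0 MES/EDTA/cysteine: B 0.25 nM liver, 100 μM Z-Phe-Arg-AMC; L 1 nM liver, 2 μM Z-Phe-Arg-AMC; S 0.5 nM recombinant, 20 μM Z-Val-Val-Arg-AMC. Cheng-Prusoff Ki, mean of 2–4 curves.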

[2] = biological target: T2, cathepsin S (Homo sapiens, UniProt P25774); assay: Cathepsin S enzyme inhibition in vitro (kinetic fluorescence assay); details: Ki(cathepsin S)/Ki(calpain) ratio
T2 construct: purchased Calbiochem 219343; host or cells: E. coli
T2 sequence (P25774 115-331): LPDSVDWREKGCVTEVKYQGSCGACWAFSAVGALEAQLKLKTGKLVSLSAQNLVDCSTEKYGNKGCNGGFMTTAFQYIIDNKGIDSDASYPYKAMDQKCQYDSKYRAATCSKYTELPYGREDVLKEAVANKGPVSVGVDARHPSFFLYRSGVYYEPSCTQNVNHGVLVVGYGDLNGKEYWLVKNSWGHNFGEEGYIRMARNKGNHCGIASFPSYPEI
How it was run: as §1

[3] = biological target: T3, cathepsin B (Homo sapiens, UniProt P07858); assay: Cathepsin B enzyme inhibition in vitro (kinetic fluorescence assay); details: Ki(cathepsin B)/Ki(calpain) ratio
T3 construct: cathepsin B—isolated from human liver; purchased Calbiochem 219362; host or cells: human liver (tissue isolate)
How it was run: as §1

[4] = biological target: T4, cathepsin K (Homo sapiens, UniProt P43235); assay: Cathepsin K enzyme inhibition in vitro (kinetic fluorescence assay); details: Ki(cathepsin K)/Ki(calpain) ratio
T4 construct: purchased Calbiochem 342001; host or cells: E. coli
T4 sequence (P43235 115-329): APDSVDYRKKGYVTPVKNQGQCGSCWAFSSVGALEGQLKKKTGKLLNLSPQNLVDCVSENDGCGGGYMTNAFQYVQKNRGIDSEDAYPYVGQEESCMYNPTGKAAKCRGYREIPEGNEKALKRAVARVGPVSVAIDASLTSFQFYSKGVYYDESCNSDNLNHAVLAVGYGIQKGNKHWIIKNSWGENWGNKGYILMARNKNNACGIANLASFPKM

T1 sequence (P07711 114-333): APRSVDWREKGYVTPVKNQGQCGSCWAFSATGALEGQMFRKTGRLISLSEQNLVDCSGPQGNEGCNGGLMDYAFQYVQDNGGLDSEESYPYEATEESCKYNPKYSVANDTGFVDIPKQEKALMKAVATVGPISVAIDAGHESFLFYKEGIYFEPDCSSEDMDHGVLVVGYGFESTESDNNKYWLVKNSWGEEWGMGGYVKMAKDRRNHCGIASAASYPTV

SMILES	Sel cat. L [1]	Sel cat. S [2]	Sel cat. B [3]	Sel cat. K [4]
NC(=O)C(=O)C(Cc1ccccc1)NC(=O)c1cccnc1-n1ccc(-c2ccccc2Cl)n1 (stereo not shown) [Example 54, N-(3-Amino-1-benzyl-2,3-dioxopropyl)-2-[3-(2-chlorophenyl)-1H-pyrazol-1-yl]nicotinamide]	++ (++ means a Ki(cathepsin L)/Ki(calpain) ratio of ≧50)	++ (++ means a Ki(cathepsin S)/Ki(calpain) ratio of ≧100)	++ (++ means a Ki(cathepsin B)/Ki(calpain) ratio of ≧30)	++ (++ means a Ki(cathepsin K)/Ki(calpain) ratio of ≧30)
NC(=O)C(=O)C(Cc1ccccc1)NC(=O)c1cccnc1-n1ccc(-c2ccc3c(c2)OC(F)(F)O3)n1 (stereo not shown) [Example 118, N-[3-Amino-2,3-dioxo-1-(phenylmethyl)propyl]-2-[3-(2,2-difluoro-1,3-benzodioxol-5-yl)-1H-pyrazol-1-yl]pyridine-3-carboxamide]	++ (++ means a Ki(cathepsin L)/Ki(calpain) ratio of ≧50)	++ (++ means a Ki(cathepsin S)/Ki(calpain) ratio of ≧100)	++ (++ means a Ki(cathepsin B)/Ki(calpain) ratio of ≧30)	+ (+ means 10≦Ki(cathepsin K)/Ki(calpain)<30)
NC(=O)C(=O)C(Cc1ccccc1)NC(=O)c1cccnc1-n1cc2c(n1)-c1ccccc1OC2 (stereo not shown) [Example 100, N-[3-Amino-2,3-dioxo-1-(phenylmethyl)propyl]-2-chromeno[4,3-c]pyrazol-2(4H)-ylpyridine-3-carboxamide]	++ (++ means a Ki(cathepsin L)/Ki(calpain) ratio of ≧50)	++ (++ means a Ki(cathepsin S)/Ki(calpain) ratio of ≧100)	+ (+ means 10≦Ki(cathepsin B)/Ki(calpain)<30)	++ (++ means a Ki(cathepsin K)/Ki(calpain) ratio of ≧30)
NC(=O)C(=O)C(Cc1ccccc1)NC(=O)c1cccnc1-n1ccc(-c2cccc(OCc3ccccc3)c2)n1 (stereo not shown) [Example 96, N-[3-Amino-2,3-dioxo-1-(phenylmethyl)propyl]-2-(3-{3-[(phenylmethyl)oxy]phenyl}-1H-pyrazol-1-yl)pyridine-3-carboxamide]	++ (++ means a Ki(cathepsin L)/Ki(calpain) ratio of ≧50)	++ (++ means a Ki(cathepsin S)/Ki(calpain) ratio of ≧100)	++ (++ means a Ki(cathepsin B)/Ki(calpain) ratio of ≧30)	++ (++ means a Ki(cathepsin K)/Ki(calpain) ratio of ≧30)
NC(=O)C(=O)C(Cc1ccccc1)NC(=O)c1cccnc1-n1ccc(-c2cccc(N3CCOCC3)c2)n1 (stereo not shown) [Example 58, N-(3-Amino-1-benzyl-2,3-dioxopropyl)-2-[3-(3-morpholin-4-ylphenyl)-1H-pyrazol-1-yl]nicotinamide]	++ (++ means a Ki(cathepsin L)/Ki(calpain) ratio of ≧50)	++ (++ means a Ki(cathepsin S)/Ki(calpain) ratio of ≧100)	+ (+ means 10≦Ki(cathepsin B)/Ki(calpain)<30)	+ (+ means 10≦Ki(cathepsin K)/Ki(calpain)<30)
NC(=O)C(=O)C(Cc1ccccc1)NC(=O)c1cccnc1-n1ccc(-c2cc(Cl)ccc2Cl)n1 (stereo not shown) [Example 112, N-[3-Amino-2,3-dioxo-1-(phenylmethyl)propyl]-2-[3-(2,5-dichlorophenyl)-1H-pyrazol-1-yl]pyridine-3-carboxamide]	++ (++ means a Ki(cathepsin L)/Ki(calpain) ratio of ≧50)	++ (++ means a Ki(cathepsin S)/Ki(calpain) ratio of ≧100)	++ (++ means a Ki(cathepsin B)/Ki(calpain) ratio of ≧30)	++ (++ means a Ki(cathepsin K)/Ki(calpain) ratio of ≧30)
COc1ccc(CC(NC(=O)c2cccnc2-n2ccc(-c3ccccc3F)n2)C(=O)C(N)=O)cc1 (stereo not shown) [Example 92, N-(3-Amino-1-{[4-(methyloxy)phenyl]methyl}-2,3-dioxopropyl)-2-[3-(2-fluorophenyl)-1H-pyrazol-1-yl]pyridine-3-carboxamide]	++ (++ means a Ki(cathepsin L)/Ki(calpain) ratio of ≧50)	++ (++ means a Ki(cathepsin S)/Ki(calpain) ratio of ≧100)	++ (++ means a Ki(cathepsin B)/Ki(calpain) ratio of ≧30)	+ (+ means 10≦Ki(cathepsin K)/Ki(calpain)<30)

Source: patent publication US9139557B2, “Carboxamide compounds and their use as calpain inhibitors” (Abbott GmbH & Co. KG, priority 2006, dated 2015)
